# Reference: patent publication US8530621B2, “Combined preparation of a thiazide diuretic and a loop diuretic” (The Regents of the University of California, priority 2007, dated 2013)
# Non-standard residues stand in square brackets, D forms with d. Residues, ends and D or L forms follow the SMILES beside them. No end group written: not given here. pY = N[C@@H](Cc1ccc(OP(=O)(O)O)cc1)C(=O)O
# Assays:
# talin F3 = biological target: T1, talin F3 (Mus musculus, UniProt P26039); test: 1H-15N HSQC NMR titration of talin F3 with peptides; format: binding; settings: for perturbation of contact residues in the MP region: mutant chimeric peptides added to wild-type talin F3, MD site binding unchanged
# T1 construct: labeled talin F3 domain was expressed and purified as described previously (de Pereda et al., 2005); made in house
# Method: (§1) Talin F3 L325R and Q381V mutants were titrated with the original β3/PIPKIγ chimera, while the effect of peptide mutations (F727A and F730A) was assessed using wild-type talin F3.
# We set out to obtain a structural explanation for the unusual ability of the talin PTB domain to activate integrins. An initial exploration of the interactions was carried out by adding various tail-derived β3-integrin peptides to the F3 sub-domain of talin, while monitoring the chemical shift perturbations in ^1H-^15N HSQC NMR spectra. The peptide sequences and the nomenclature used are set out in FIG. 1A. The MP peptide corresponds to the N-terminal region of the cytoplasmic β-tail. A peptide comprised of the β-tail region previously visualized in the crystal structure (Garcia-Alvarez et al., 2003), is denoted MD; this peptide primarily causes chemical shift perturbations in strand S5 (de Pereda et al., 2005).
# (§2) ^1H-^15N-HSQC titrations were performed as previously described (de Pereda et al., 2005). Weighted shifts (Δδ(HN,N)) were calculated using the equation: Δδ(HN,N)=((ΔδHNWHN)^2+(ΔδNWN)^2)^1/2, where WHN and WN are weighting factors for the HN and N shifts respectively (WHN=1, WN=0.154) (Ayed et al., 2001) and Δδ=δbound−δfree. Talin F3 domains in complex with slow-exchanging peptides, as well as mutant F3 domains, were assigned by correlation to the wild-type talin F3 assignments (de Pereda et al., 2005) and confirmed using 3D gradient-enhanced [^1H-^15N]-NOESY-HSQC (τm=100 ms) spectra alone, or in combination with [^1H-^15N]-TOCSY-HSQC (τm=70 ms) spectra. ^13CO, ^13Cα and ^13Cβ shifts were obtained using a series of 2D ^1H-^15N-^13C experiments (Bersch et al., 2003). Bound peptide shifts were obtained using U—^15N,^2H F3 and unlabeled chimeric peptide (1.3:1). Both bound and unbound chimeric peptide shifts were assigned using 2D NOESY, TOCSY and COSY spectra. DOK PTB domain assignments were obtained previously (unpublished).
# [1] = Solubility of peptide at the concentrations used for NMR; format: physicochemical
# Description: NMR studies of the interaction with full-length β3 cytoplasmic tail were more challenging. The off-rates of the complex correspond to an ‘intermediate exchange’ regime, with peaks broadening and disappearing rather than changing position. It was, however, possible to define perturbed residues by plotting the percentage decrease in peak height upon addition of the peptide (FIGS. 1D and 8). The perturbed residues are essentially the sum of those affected by the MD peptide and the MP peptide (FIGS. 1 and 8). The β3 tail/talin F3 interactions can thus be considered in two parts, one corresponding to the previously defined interaction at the MD-site, the other corresponding to the MP-site. […] This, together with exchange broadening of lines, made the β3 tail an unsuitable ligand for studying the structure of the talin-integrin complex by NMR at atomic resolution.
# β3/PIPKIγ chimera = test: 1H-15N HSQC NMR titration of talin F3 mutants with chimeric peptide; settings: talin F3 mutants titrated with the original β3/PIPKIγ chimera; MD site binding unchanged
# Method: as §1
# Mutations to the contact residues in talin F3 (L325R, S365D, S379R, or Q381V) were also made to see if they disrupted the F3/MP interaction.
# as §2
# Talin F3 W359A = biological target: T2, Talin F3 W359A (Mus musculus, UniProt P26039, W359A); test: Isothermal titration calorimetry, chimeric peptide binding to talin F3 mutant; settings: ITC, relative to wild type talin F3
# T2 construct: injected into the cell containing wildtype or mutant talin F3 domain; made in house
# Method: Peptide concentrations were typically at 150 to 300 μM while protein concentrations ranged from 25 to 50 μM. For the W359A mutant, the protein concentration was 50 μM and the peptide concentration was 1 mM. Prior to ITC titrations, the peptides and proteins were in buffer consisting of 200 mM Tris, 300 mM NaCl, pH 7.5. All experiments were conducted at 23 degrees Celsius. […] The bottom panel is the binding curve, calculated using the software program Origin.
# Thermodynamic parameters for the binding of WT and mutant talin F3 to the β3 chimeric peptides were measured using isothermal titration calorimetry (Table 2, FIG. 12). In general, mutations that disrupt the MP site, either in the β-tail or talin F3, have relatively little effect on the Kd values (Table 2). This probably arises because of a balance between enthalpy gain and entropy loss, consistent with stabilization of the MP helix on talin binding in the wild-type but not mutant structures. In sharp contrast, the talin (W359A) mutant, which inhibits binding of the MD-site of the β3 tail, reduced the affinity ˜1000 fold, similar to the effect of mutations in the NPxY region of the integrin tail, which abrogate MD binding (Ulmer et al., 2003).
# Isothermal titration calorimetry (ITC) was performed on a VP-ITC calorimeter (Microcal, Northampton, Mass.). […] Experimental data were analyzed using Microcal Origin software.
# T1 sequence (P26039 309-405 limits assumed): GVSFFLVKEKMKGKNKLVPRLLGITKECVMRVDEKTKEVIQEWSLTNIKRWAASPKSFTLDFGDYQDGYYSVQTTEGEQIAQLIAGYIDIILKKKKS
# β3/PIPKIγ chimera, sequence (as listed by the source, change not shown): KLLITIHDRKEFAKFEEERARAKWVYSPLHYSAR
molecule,measurement,setting,value
CC[C@H](C)[C@H](NC(=O)[C@H](CC(C)C)NC(=O)[C@H](CC(C)C)NC(=O)[C@H](CCCCN)NC(=O)[C@@H](N)CCCCN)C(=O)N[C@H](C(=O)N[C@H](C(=O)N[C@@H](Cc1c[nH]cn1)C(=O)N[C@@H](CC(=O)O)C(=O)N[C@@H](CCCNC(=N)N)C(=O)N[C@@H](CCCCN)C(=O)N[C@@H](CCC(=O)O)C(=O)N[C@@H](C)C(=O)N[C@@H](C)C(=O)N[C@@H](CCCCN)C(=O)N[C@@H](Cc1ccccc1)C(=O)N[C@@H](CCC(=O)O)C(=O)N[C@@H](CCC(=O)O)C(=O)N[C@@H](CCC(=O)O)C(=O)N[C@@H](CCCNC(=N)N)C(=O)N[C@@H](C)C(=O)N[C@@H](CCCNC(=N)N)C(=O)N[C@@H](C)C(=O)N[C@@H](CCCCN)C(=O)N[C@@H](Cc1c[nH]c2ccccc12)C(=O)N[C@H](C(=O)N[C@@H](Cc1ccc(OP(=O)(O)O)cc1)C(=O)N[C@@H](CO)C(=O)N1CCC[C@H]1C(=O)N[C@@H](CC(C)C)C(=O)N[C@@H](Cc1c[nH]cn1)C(=O)N[C@@H](Cc1ccc(O)cc1)C(=O)N[C@@H](CO)C(=O)N[C@@H](C)C(=O)N[C@@H](CCCNC(=N)N)C(=O)O)C(C)C)[C@@H](C)CC)[C@@H](C)O [β3 chimera F727A] (H-KKLLITIHDRKEAAKFEEERARAKWV[pY]SPLHYSAR-OH; N-terminus and C-terminus assumed),perturbation of contact residues in the MP region,talin F3,markedly reduced
CC[C@H](C)[C@H](NC(=O)[C@H](CC(C)C)NC(=O)[C@H](CC(C)C)NC(=O)[C@H](CCCCN)NC(=O)[C@@H](N)CCCCN)C(=O)N[C@H](C(=O)N[C@H](C(=O)N[C@@H](Cc1c[nH]cn1)C(=O)N[C@@H](CC(=O)O)C(=O)N[C@@H](CCCNC(=N)N)C(=O)N[C@@H](CCCCN)C(=O)N[C@@H](CCC(=O)O)C(=O)N[C@@H](Cc1ccccc1)C(=O)N[C@@H](C)C(=O)N[C@@H](CCCCN)C(=O)N[C@@H](C)C(=O)N[C@@H](CCC(=O)O)C(=O)N[C@@H](CCC(=O)O)C(=O)N[C@@H](CCC(=O)O)C(=O)N[C@@H](CCCNC(=N)N)C(=O)N[C@@H](C)C(=O)N[C@@H](CCCNC(=N)N)C(=O)N[C@@H](C)C(=O)N[C@@H](CCCCN)C(=O)N[C@@H](Cc1c[nH]c2ccccc12)C(=O)N[C@H](C(=O)N[C@@H](Cc1ccc(OP(=O)(O)O)cc1)C(=O)N[C@@H](CO)C(=O)N1CCC[C@H]1C(=O)N[C@@H](CC(C)C)C(=O)N[C@@H](Cc1c[nH]cn1)C(=O)N[C@@H](Cc1ccc(O)cc1)C(=O)N[C@@H](CO)C(=O)N[C@@H](C)C(=O)N[C@@H](CCCNC(=N)N)C(=O)O)C(C)C)[C@@H](C)CC)[C@@H](C)O [β3 chimera F730A] (H-KKLLITIHDRKEFAKAEEERARAKWV[pY]SPLHYSAR-OH; N-terminus and C-terminus assumed),perturbation of contact residues in the MP region,talin F3,undetectable
CC[C@H](C)[C@H](NC(=O)[C@H](CC(C)C)NC(=O)[C@H](CC(C)C)NC(=O)[C@H](CCCCN)NC(=O)[C@@H](N)CCCCN)C(=O)N[C@H](C(=O)N[C@H](C(=O)N[C@@H](Cc1c[nH]cn1)C(=O)N[C@@H](CC(=O)O)C(=O)N[C@@H](CCCNC(=N)N)C(=O)N[C@@H](CCCCN)C(=O)N[C@@H](CCC(=O)O)C(=O)N[C@@H](Cc1ccccc1)C(=O)N[C@@H](C)C(=O)N[C@@H](CCCCN)C(=O)N[C@@H](Cc1ccccc1)C(=O)N[C@@H](CCC(=O)O)C(=O)N[C@@H](CCC(=O)O)C(=O)N[C@@H](CCC(=O)O)C(=O)N[C@@H](CCCNC(=N)N)C(=O)N[C@@H](C)C(=O)N[C@@H](CCCNC(=N)N)C(=O)N[C@@H](C)C(=O)N[C@@H](CCCCN)C(=O)N[C@@H](Cc1c[nH]c2ccccc12)C(=O)N[C@H](C(=O)N[C@@H](Cc1ccc(OP(=O)(O)O)cc1)C(=O)N[C@@H](CO)C(=O)N1CCC[C@H]1C(=O)N[C@@H](CC(C)C)C(=O)N[C@@H](Cc1c[nH]cn1)C(=O)N[C@@H](Cc1ccc(O)cc1)C(=O)N[C@@H](CO)C(=O)N[C@@H](C)C(=O)N[C@@H](CCCNC(=N)N)C(=O)O)C(C)C)[C@@H](C)CC)[C@@H](C)O [β3 chimera] (H-KKLLITIHDRKEFAKFEEERARAKWV[pY]SPLHYSAR-OH; N-terminus and C-terminus assumed),binding to talin (NMR),talin F3; 25° C.,"bind to talin and form a tight, highly soluble 1:1 complex"
KLLITIHDRKEFAKFEEERARAKWDTANNPLYKEATSTFTNITYRGT [full-length β3 tail],solubility,[1],limited solubility
F3-Q381V: talin F3 domain mutant Q381V (protein) GVSFFLVKEKMKGKNKLVPRLLGITKECVMRVDEKTKEVIQEWSLTNIKRWAASPKSFTLDFGDYQDGYYSVVTTEGEQIAQLIAGYIDIILKKKKS,perturbation of contact residues in the MP region,β3/PIPKIγ chimera,markedly reduced
"talin (W359A): talin F3 domain mutant W359A, inhibits binding of the MD-site of the β3 tail (protein) GVSFFLVKEKMKGKNKLVPRLLGITKECVMRVDEKTKEVIQEWSLTNIKRAAASPKSFTLDFGDYQDGYYSVQTTEGEQIAQLIAGYIDIILKKKKS",reduction of affinity for the β3 chimeric peptide,Talin F3 W359A,~1000 fold
F3-L325R: talin F3 domain mutant L325R (protein) GVSFFLVKEKMKGKNKRVPRLLGITKECVMRVDEKTKEVIQEWSLTNIKRWAASPKSFTLDFGDYQDGYYSVQTTEGEQIAQLIAGYIDIILKKKKS,perturbation of contact residues in the MP region,β3/PIPKIγ chimera,undetectable
